# Measurements published in patent publication US12577702B2, “Oligonucleotide encoded chemical libraries, related systems, devices, and methods for detecting, analyzing, quantifying, and testing biologics/genetics” (Plexium, Inc., priority 2020, dated 2026).
# Biological target: Cathepsin-D protease (Homo sapiens, UniProt P07339)
# Assay: Protease inhibition assay in picowells with compound photo-released from beads
# Format: biochemical
# Conditions: compound released from 10 μm TentaGel bead by UV (365 nm, 77 J/cm^2) to approximately 13 μM; incubated 30 min, 37° C.; λex=480 nm, λem=525 nm
# From the text: Reagents were placed into wells at 4 degrees C. Ultraviolet light at 365 nm was used to cleave the fluorophore from the bead, thereby releasing the fluorophore and separating it from the quencher. […] This setup with bead-bound pepstatin-A and the aspartyl protease can serve as a positive control.
# This bead population was introduced into picowells, then buffer exchanged into a protease inhibition assay, including Cathepsin-D protease and Peptide Q-Fluor substrate (λex=480 nm, λem=525 nm). Wells were encapsulated by air, and entire slide exposed to UV (365 nm, 77 J/cm^2), cleaving the photolabile linker, releasing the compound to reach approximately 13 μM. The flowcell was incubated (30 min, 37° C.).
# Greater fluorescence means that the enzyme is more catalytically active. […] Images were captured following UV release and Cathepsin-D assay incubation (λex=480 nm, λem=525 nm). Wells containing positive control beads could be identified spectrally by Cy5 fluorophore (λex=645 nm, λem=665 nm, orange false color).
# Chain of Cathepsin-D protease (P07339 65-412): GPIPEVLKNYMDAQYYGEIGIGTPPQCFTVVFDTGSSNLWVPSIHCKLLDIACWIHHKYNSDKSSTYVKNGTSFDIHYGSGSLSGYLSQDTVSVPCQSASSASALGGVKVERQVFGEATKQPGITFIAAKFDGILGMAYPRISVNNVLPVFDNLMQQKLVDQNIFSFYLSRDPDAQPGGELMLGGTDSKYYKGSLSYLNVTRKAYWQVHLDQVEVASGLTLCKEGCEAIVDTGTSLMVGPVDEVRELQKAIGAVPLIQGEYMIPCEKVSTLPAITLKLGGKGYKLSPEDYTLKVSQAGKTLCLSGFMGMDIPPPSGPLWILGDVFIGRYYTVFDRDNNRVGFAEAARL
smiles,measurement,value
"CC(C)[C@H](NC(=O)OCC1c2ccccc2-c2ccccc21)C(=O)O [negative control beads, Fmoc-Valine]",Cathepsin-D inhibition (fluorescence of Peptide Q-Fluor substrate in well),no Cathepsin-D inhibition
